Laboratory results taken from patent US7879846B2, “Serine hydrolase inhibitors” (Kyorin Pharmaceutical Co.., Ltd., priority 2006, dated 2011).
Values joined by “and” are separate entries in the source; they are usually repeats but may differ in a detail not shown here. Identical values can stand only once. Counter-ions that a name gives are not always drawn.

How the values were obtained:
[1] = target: T1, Human sputum neutrophil elastase (Homo sapiens, UniProt P08246); assay: Inhibitor IC50 against human neutrophil elastase (fluorogenic MeOSuc-AAPV-AMC substrate); assay type: biochemical; details: 20 min preincubation, read-out: HNE IC50
T1 construct: purchased Elastin Products Co; host or cells: human sputum (natural source)
T1 sequence (P08246 30-247 limits assumed): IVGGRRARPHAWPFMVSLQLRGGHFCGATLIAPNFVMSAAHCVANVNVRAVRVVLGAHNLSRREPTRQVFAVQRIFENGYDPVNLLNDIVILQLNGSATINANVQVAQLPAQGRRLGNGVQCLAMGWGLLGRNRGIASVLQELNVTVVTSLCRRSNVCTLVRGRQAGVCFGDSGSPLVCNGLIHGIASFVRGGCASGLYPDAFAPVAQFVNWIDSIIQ
How it was run: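 Enzyme from human sputum in 200 mM Tris pH 7.4 with 1 mg/ml BSA; MeOSuc-AAPV-AMC at 1×10^−4 M final. Reaction ran 20 min at room temperature, then quenched with 3% (v/v) acetic acid. IC50 from Hill fit of fluorescence versus inhibitor concentration.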

[2] = test system: HNE-induced hemorrhage in the lung; assay: Neutrophil elastase-induced lung hemorrhagic assay; assay type: in vivo; details: Mus musculus, iv, 10 mg/kg intravenously to male balb/c mice 10 min before intratracheal HNE, hemoglobin in BALF 3 h after HNE, vs vehicle-treated controls, read-out: % Inhibition in Murine Lung Hemorrhage Model @ 10 mg/kg
Description: Neutrophil Elastase-Induced Lung Hemorrhagic Assay
This in vivo assay is based on estimating the amount of hemorrhage in the lung following intratracheal administration of human neutrophil elastase (HNE). Hemorrhage is quantified by measuring the concentration of hemoglobin in the bronchoalveolar lavage fluid (BALF).
DMSO or saline served as vehicle controls. Mice were anesthetized with halothane and the trachea exposed by a small incision in the neck. Ten minutes after compound administration, mice received 7.5 units/animal of HNE (Elastin Products Co.) dissolved in […] saline. Three hours after HNE instillation, the animals were euthanized with an overdose of urethane. […] Triton X-100 was added to the collected BALF at a final concentration of 0.2% (v/v) to ensure cell disruption.

[3] = test system: LPS-induced increase of lung permeability (Evan's blue dye leakage); assay: Acute lung injury model (lung permeability assay); assay type: in vivo; details: male Wistar rats, intratracheal LPS, intravenous infusion 10 mg/kg/hr over 6 hours, Evan's blue dye content of lung
Protocol: Acute Lung Injury Model (Lung Permeability Assay)
Adult male Wistar rats (200-250 g) were anesthetized with an intraperitoneal of pentobarbital (30 mg/kg). Under the anesthesia, lipopolysaccharide (LPS) ([…]) or physiological saline (100 μL/animal) was intratracheally injected. Increase of lung permeability after LPS instillation was measured by Evan's blue dye (EBD) leakage from blood. EBD (40 mg/5 mL/kg) was administered via tail vein 5 hours after the LPS challenge. At 6 hours, animals were exsanguinated by cardiac puncture under deep anesthesia and the pulmonary vessels were perfused with 20 mL saline to ensure the removal of EBD from the vascular spaces. Lungs were removed and EBD was extracted in 6 mL formamide at 65° C. overnight. EBD content was determined by measuring absorbance at 620 nm using a spectrophotometer. The test compound was dissolved in saline with a small amount of 1 N HCl and continuously infused intravenously at a rate of 10 mg/kg/hr over 6 hours starting just after LPS challenge.

| Compound | IC50 [1] [nM] | inhibition in vivo at 10 mg/kg [2] [%] | melting point | % Inhibition in the ALI model [3] |
| --- | --- | --- | --- | --- |
| COCCOCCOCCOCCOc1ncccc1-c1nc2cccc(C)c2c(=O)o1 [Compound 52, 2-[2-(2-{2-[2-(2-Methoxy-ethoxy)-ethoxy]-ethoxy}-ethoxy)-pyridin-3-yl]-5-methyl-4H-benz[d][1,3]oxazin-4-one] | 16 to 60 | 11 to 30 | – | – |
| CCc1cc(OC)cc2nc(-c3cccnc3N3CC[C@H](N(C)C)C3)oc(=O)c12 (as salt: tartrate) (hydrate or solvate) [Compound 132, 2-[2-((S)-3-Dimethylamino-pyrrolidin-1-yl)-pyridin-3-yl]-5-ethyl-7-methoxy-4H-benz[d][1,3]oxazin-4-one] | – | – | 148 to 155 °C and 144 to 145 °C | – |
| CCc1cc(OC)cc2nc(-c3cccnc3N3CC[C@H](N(C)C)C3)oc(=O)c12 (as salt: trifluoroacetate) [Compound 132, 2-[2-((S)-3-Dimethylamino-pyrrolidin-1-yl)-pyridin-3-yl]-5-ethyl-7-methoxy-4H-benz[d][1,3]oxazin-4-one] | – | – | 117 to 119 °C | – |
| Cc1cccc2nc(-c3cccnc3Oc3ccc(Cl)cc3)oc(=O)c12 [Compound 21] | 16 to 60 | < 10 | – | – |
| Cc1cccc2nc(-c3cccnc3N3CCN(CC4CC4)CC3)oc(=O)c12 [Compound 54] | > 150 | > 30 | – | – |
| CCc1cc(OC)cc2nc(-c3cccnc3N3CCN(CCOC)CC3)oc(=O)c12 [Compound 134] | – | – | – | B (B=11-30) |
| Cc1cccc2nc(-c3ccccn3)oc(=O)c12 [Compound 4] | > 150 | > 30 | – | – |
| Cc1cccc2nc(-c3cccnc3N3CCCC(N(C)C)C3)oc(=O)c12 (stereo not drawn) [Compound 49] | 61 to 150 | < 10 | – | – |
| Cc1cccc2nc(-c3cccnc3Oc3ccc(F)cc3)oc(=O)c12 [Compound 36] | 16 to 60 | > 30 | – | – |
| CCc1cc(OC)cc2nc(-c3cccnc3N3CC[C@H](N(C)C)C3)oc(=O)c12 (as salt: methanesulfonate) (hydrate or solvate) [Compound 132, 2-[2-((S)-3-Dimethylamino-pyrrolidin-1-yl)-pyridin-3-yl]-5-ethyl-7-methoxy-4H-benz[d][1,3]oxazin-4-one] | – | – | 43 to 49 °C | – |
| CCc1cc(OC)cc2nc(-c3cccnc3N3CC[C@H](N(C)C)C3)oc(=O)c12 [Compound 132, 2-[2-((S)-3-Dimethylamino-pyrrolidin-1-yl)-pyridin-3-yl]-5-ethyl-7-methoxy-4H-benz[d][1,3]oxazin-4-one] | < 15 | – | – | C (C>30) |
| Cc1cccnc1-c1nc2cccc(Cl)c2c(=O)o1 [Compound 18] | 16 to 60 | < 10 | – | – |
| O=c1oc(-c2cccnc2Oc2ccc(F)cc2)nc2cccc(Cl)c12 [Compound 26] | 61 to 150 | 11 to 30 | – | – |
| Cc1cccc2nc(-c3cccnc3N(C)C3CCN(C)C3)oc(=O)c12 (stereo not drawn) [Compound 53] | 61 to 150 | 11 to 30 | – | – |
| O=c1oc(-c2cccnc2Oc2ccccc2)nc2cccc(C(F)(F)F)c12 [Compound 39] | < 15 | > 30 | – | – |
| Cc1cccc2nc(-c3cccnc3N3CCC(N(C)C)C3)oc(=O)c12 (stereo not drawn) [Compound 46, 2-[2-(3-Dimethylamino-pyrrolidin-1-yl)-pyridin-3-yl]-5-methyl-4H-benz[d][1,3]oxazin-4-one] | 61 to 150 | > 30 | – | – |
| Cc1cccc2nc(-c3cccnc3N3CCN(C)C(C)C3)oc(=O)c12 (stereo not drawn) [Compound 50] | > 150 | 11 to 30 | – | – |
| COCCN1CCN(c2ncccc2-c2nc3cccc(C)c3c(=O)o2)CC1 [Compound 44] | 16 to 60 | 11 to 30 | – | – |
| COc1cc(C2CCC2)c2c(=O)oc(-c3cccnc3N3CC[C@H](N(C)C)C3)nc2c1 [Compound 176] | 61 to 150 | – | – | – |
| CCc1cc(OC)cc2nc(-c3cccnc3N3CC[C@H](N(C)C)C3)oc(=O)c12 (as salt: salt) (hydrate or solvate) [Compound 132, 2-[2-((S)-3-Dimethylamino-pyrrolidin-1-yl)-pyridin-3-yl]-5-ethyl-7-methoxy-4H-benz[d][1,3]oxazin-4-one] | – | – | 150 to 159 °C | – |
| CCCc1cc(OC)cc2nc(-c3cccnc3N(C)C3CCN(C)C3)oc(=O)c12 (stereo not drawn) [Compound 146] | > 150 | – | – | – |
| CCCc1cc(OC)cc2nc(-c3cccnc3N(C)CCN(C)C)oc(=O)c12 [Compound 151] | 16 to 60 | – | – | – |
